The source of these data is article PMC12544700, “Identification of a Small Secretoneurin Derivative That Inhibits CaMKIIδ Activity” (Journal of Cellular and Molecular Medicine, 2025).

Peptide text beside a SMILES is read from it. * marks the point of attachment. Biotin = O=C1N[C@H]2[C@H](CS[C@H]2CCCCC(=O)*)N1; Ahx = NCCCCCC(=O)O

The test system of this assay is adult rat cardiomyocytes. The assay is described as follows: Caffeine-elicited Ca2+ transients (Ca2+ extrusion). In kind it is cell-based. Conditions: 10 mM caffeine; whole‐cell photometry; Figure S3, n = 10–18, 4–6 rats. Here is the method: Male Wistar rats (Janvier, France) weighing ~300 g were sedated in an anaesthesia chamber by inhalation of 5% isoflurane and 95% O2. The heart was excised under deep surgical anaesthesia, cannulated, and then retrogradely perfused through the aorta on a modified Langendorff setup with cell isolation solution containing (in mM, pH adjusted to 7.4, 37°C): NaCl 130, Hepes 25, D‐glucose 22, KCl 5.4, MgCl2 0.5, NaH2PO4 0.4, and a flow rate of 4 mL/min. After the heart was cleaned of blood, collagenase type II (2 mg/mL, Worthington Biochemical Corp, Lakewood, NJ, USA) was added to the perfusate, and the hearts digested for ~10 min. Following digestion, hearts were cut down, and the left ventricle dissected into pieces, which were transferred into 10 mL cell isolation solution with 250 μL BSA (40 mg/mL) and ~0.2 mg Deoxyribonuclease I (Worthington Biochemical Corporation, Lakewood, NJ, USA). […]
To estimate SR Ca^2+ content, Ca^2+ release was triggered by rapid exposure to 10 mM caffeine (Sigma) and recorded by whole‐cell photometry (Photon Technology International, Monmouth Junction, NJ, USA) with a 40× oil objective. Cells were first stimulated at 1 Hz in Hepes‐Tyrode (HT, see the paragraph above) solution containing CaCl2 until at least three stable Ca^2+ transients were recorded. […]

Regarding `CC(C)C[C@H](NC(=O)[C@H](CCC(=O)O)NC(=O)[C@H](CCC(N)=O)NC(=O)[C@H](Cc1ccccc1)NC(=O)[C@H](Cc1ccccc1)NC(=O)[C@H](CO)NC(=O)[C@H](CCC(=O)O)NC(=O)[C@H](Cc1ccccc1)NC(=O)[C@@H](NC(=O)[C@H](C)NC(=O)[C@H](CC(C)C)NC(=O)[C@H](CO)NC(=O)[C@H](CCC(N)=O)NC(=O)[C@@H]1CCCN1C(=O)[C@@H](NC(=O)[C@H](Cc1ccc(O)cc1)NC(=O)[C@H](CCC(N)=O)NC(=O)[C@H](CCC(=O)O)NC(=O)CCCCCNC(=O)CCCC[C@@H]1SC[C@@H]2NC(=O)N[C@@H]21)[C@@H](C)O)[C@@H](C)O)C(=O)NCC(=O)N[C@@H](CCCCN)C(=O)O` [SN‐db‐short] ({Biotin-Ahx}-EQYTPQSLATFESFFQELGK-OH; N-terminus and C-terminus assumed), the “Rate of Ca2+ extrusion (Na+‐Ca2+ exchanger and plasma membrane Ca2+ ATPase activity)” value is given as “no change”.
